In patent US12258367B2, “Glucoside derivative that acts as SGLT1 inhibitor and application thereof” (MEDSHINE DISCOVERY INC., priority 2019, dated 2025):
Marks after values point to notes of the source that are not given here.

Tests used:
Human-SGLT2 = molecular target: T1, Human-SGLT2 (Homo sapiens, UniProt P31639); assay: SGLT2 glucose transport assay ([14C]-methyl α-D-glucopyranoside uptake); format: cell-based; details: cells stably expressing Human-SGLT2, 37° C. for 2 hours
T1 sequence (P31639 1-672): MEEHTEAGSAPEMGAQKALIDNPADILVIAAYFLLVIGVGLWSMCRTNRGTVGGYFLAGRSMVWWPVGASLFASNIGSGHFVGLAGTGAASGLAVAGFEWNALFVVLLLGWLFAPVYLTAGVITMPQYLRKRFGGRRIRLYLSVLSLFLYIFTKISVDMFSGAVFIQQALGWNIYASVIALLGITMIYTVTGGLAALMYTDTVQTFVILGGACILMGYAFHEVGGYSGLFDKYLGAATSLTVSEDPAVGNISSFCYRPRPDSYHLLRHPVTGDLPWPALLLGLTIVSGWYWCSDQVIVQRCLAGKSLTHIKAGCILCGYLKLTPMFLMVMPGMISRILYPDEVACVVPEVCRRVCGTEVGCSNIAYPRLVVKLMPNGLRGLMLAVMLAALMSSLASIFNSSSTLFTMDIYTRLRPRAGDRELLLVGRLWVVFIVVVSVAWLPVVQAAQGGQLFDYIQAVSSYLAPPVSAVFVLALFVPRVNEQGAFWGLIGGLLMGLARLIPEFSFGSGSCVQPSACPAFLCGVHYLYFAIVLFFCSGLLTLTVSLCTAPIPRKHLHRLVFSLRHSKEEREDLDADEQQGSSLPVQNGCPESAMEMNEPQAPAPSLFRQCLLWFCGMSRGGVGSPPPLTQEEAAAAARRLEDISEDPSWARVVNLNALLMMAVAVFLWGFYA
Experimental: The effect of the compound on the glucose transport activity of the SGLT2 transporter was detected by measuring the amount of [^14C]-labeled glucose entering cells highly expressing Human-SGLT2.
The cells stably expressing Human-SGLT2 used in the assay were constructed by Shanghai WuXi AppTec. The SGLT2 cells were plated on a 96-well cell culture plate (Greiner) and cultured at 5% CO2, 37° C. overnight.

[1] = In vivo DMPK study in rats; details: male SD rats; for clearance / half-life / Vd: iv, 1 mg/kg intravenously; for clearance: read-out: Cl (clearance rate); for half-life: read-out: T1/2 (half-life) (converted); for Vd: read-out: VdSS (distribution volume)
Excerpt: Purpose of the assay: Male SD rats were used as test animals to determine the blood concentration of the compound after a single administration and evaluate the pharmacokinetic behavior.
Procedure of the assay: 4 healthy adult male SD rats were selected, 2 rats in the intravenous injection group, and 2 rats in the oral group. The test compound was mixed with an appropriate amount of vehicle (10% NMP/10% solutol/80% water) for the intravenous injection group, vortexed, and sonicated to prepare a clear solution of 0.5 mg/mL. The clear solution was filtered by a microporous membrane for use. The vehicle for the oral group was 10% NMP/10% solutol/80% water. The test compound was mixed with the vehicle, and then the mixture was vortexed and sonicated to prepare a clear solution of 1 mg/mL. Rats were administered 1 mg/kg intravenously or 10 mg/kg orally, and then whole blood was collected for a certain period. Plasma was prepared. The drug concentration was analyzed by LC-MS/MS method, and the pharmacokinetic parameters were calculated by Phoenix WinNonlin software (Pharsight, USA).

Human-SGLT1 = molecular target: T2, Human-SGLT1 (Homo sapiens, UniProt P13866); assay: SGLT1 glucose transport assay ([14C]-methyl α-D-glucopyranoside uptake); format: cell-based; details: cells stably expressing Human-SGLT1, 37° C. for 2 hours
T2 sequence (P13866 1-664): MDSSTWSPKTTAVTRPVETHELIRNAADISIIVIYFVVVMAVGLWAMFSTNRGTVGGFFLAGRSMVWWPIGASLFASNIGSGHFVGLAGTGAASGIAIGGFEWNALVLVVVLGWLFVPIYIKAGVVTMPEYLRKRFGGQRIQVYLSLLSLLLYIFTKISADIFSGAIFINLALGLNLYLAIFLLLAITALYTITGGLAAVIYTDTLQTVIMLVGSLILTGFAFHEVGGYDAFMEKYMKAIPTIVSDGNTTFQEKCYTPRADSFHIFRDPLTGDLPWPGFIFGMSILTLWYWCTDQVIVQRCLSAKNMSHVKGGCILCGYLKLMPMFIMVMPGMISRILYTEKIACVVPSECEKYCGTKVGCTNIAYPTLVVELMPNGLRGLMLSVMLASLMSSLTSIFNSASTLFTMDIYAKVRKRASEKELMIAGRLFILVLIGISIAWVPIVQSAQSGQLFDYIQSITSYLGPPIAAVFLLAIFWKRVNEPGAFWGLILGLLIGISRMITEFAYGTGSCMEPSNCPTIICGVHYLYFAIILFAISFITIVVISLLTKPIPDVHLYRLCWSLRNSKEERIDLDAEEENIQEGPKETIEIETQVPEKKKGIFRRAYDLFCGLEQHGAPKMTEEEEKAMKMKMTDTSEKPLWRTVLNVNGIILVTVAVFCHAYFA
Experimental: The effect of the compounds on the glucose transport activity of the SGLT1 transporter was detected by measuring the amount of [^14C]-labeled glucose entering cells highly expressing Human-SGLT1.
The cells stably expressing Human-SGLT1 used in the assay were constructed by Shanghai WuXi AppTec. The SGLT1 cells were plated on a Cytostar-T (PerkinElmer) 96-well cell culture plate and cultured at 5% CO2, 37° C. overnight.

C57BL/6J male mice [2] = assay: In vivo efficacy study in diabetic mouse model induced by STZ combined with high-sugar and high-fat diet; design: species or system C57BL/6J mice; details: for Glycosylated hemoglobin after 6 hours of fasting / Blood glucose after 6 hours of fasting: HFHS
Excerpt: 7 week-old C57BL/6J male mice, purchased from Jiangsu GemPharmatech Co., Ltd.
1) After the animals adapted to the environment, all mice were divided into two groups according to body weight, fed according to the scheme in Table 8, and injected with vehicle and streptozotocin (STZ) for modeling;
2) According to the random blood glucose test results of the model group, mice with random blood glucose greater than 11 mmol/L were enrolled in the group to continue the administration assay;
3) The mice in the model group that meet the criteria for enrollment were divided into 3 groups, 5 in the normal group, and 10 in each model administration group. The mice were administered according to the administration schedule in Table 9;
4) After starting the administration, the level of change in animal weight was monitored every day, and the blood glucose and glycosylated hemoglobin of the mice in each group after 6 hours of fasting were detected after 4 weeks and 7 weeks of administration, respectively;
5) Data analysis: All values were expressed as average values. Statistical analysis was evaluated using Graphpad Prism 6 one-way analysis of variance and Tukey's multiple comparison test, and a p value of less than 0.05 was considered statistically significant.

SD rats = assay: In vivo efficacy study of oral glucose tolerance in rats (OGTT); details: 5 mg/kg single gavage, then 50% glucose 2 g/kg, vehicle control 1063.4
Experimental: After the animals were fasted for 6 hours, they were administered WXD003 or vehicle according to Table 6, and then immediately administered 50% glucose solution (2 g/kg, 4 ml/kg).
The time for sugar administration was recorded as 0 point. The blood glucose of the animals was detected at 0 minute before sugar administration, and at 15, 30, 60, 90, 120 minutes after sugar administration, respectively. A curve of glucose tolerance was drawn based on the data of time versus blood glucose, and the area under curve (AUC) was calculated.
All values were expressed as average values. Statistical analysis was evaluated using Graphpad Prism 6 one-way analysis of variance and Tukey's multiple comparison test. A p value of less than 0.05 was considered statistically significant.

C57BL/6J male mice [3] = assay: In vivo efficacy study in obese mouse model induced by HFHS diet; design: species or system C57BL/6J mice; details: for Blood glucose after 6 hours of fasting / Blood glucose 1 hour after meal: after 3 weeks of administration, HFHS; for Blood glucose after 6 hours of fasting: HFHS + Vehicle 10.5; for Blood glucose 1 hour after meal: HFHS + Vehicle 11.5
Excerpt: 5 week-old C57BL/6J male mice, purchased from Jiangsu GemPharmatech Co., Ltd.
1) After the animals adapted to the environment, they were fed a HFHS diet (Research Diet, HFHS, D12451) for 20 weeks, and then mice weighing more than 40 grams were selected for weight loss assay.
2) Animals whose body weight met the standard were adapted for vehicle administration, and then all mice were divided into 5 groups according to body weight for weight loss assay. The effect of the compound in reducing the body weight of animals was detected.
3) After starting the administration, the level of change in animal weight was monitored every day, and after 3 weeks of administration, the blood glucose levels of mice in each group after 6 hours of fasting and 1 hour after meal were detected, respectively;
4) Data analysis: All values were expressed as average values. Statistical analysis was evaluated using Graphpad Prism 6 one-way analysis of variance and Tukey's multiple comparison test, and a p value of less than 0.05 was considered statistically significant.

Compound	IC50 (Human-SGLT2)	clearance ([1]; rat, plasma)	half-life ([1]; rat, plasma)	Vd ([1]; rat, plasma)	IC50 (Human-SGLT1)	also measured
CCc1ccc([C@@H]2O[C@H](SC)[C@@H](O)[C@H](O)[C@H]2O)cc1Cc1ccc(OC2CCN(C(=O)C[C@@H](Cc3cc(F)c(F)cc3F)NC)CC2)cc1 [WXD005]	1.4 nM	–	–	–	3.5 nM	–
CS[C@H]1O[C@@H](c2ccc(F)c(Cc3ccc(OC4CCN(C(=O)C[C@H](N)Cc5cc(F)c(F)cc5F)CC4)cc3)c2)[C@H](O)[C@@H](O)[C@@H]1O [WXD006]	1.4 nM	–	–	–	35 nM	–
CS[C@H]1O[C@@H](c2cccc(Cc3ccc(OC4CCN(C(=O)C[C@H](N)Cc5cc(F)c(F)cc5F)CC4)cc3)c2)[C@H](O)[C@@H](O)[C@@H]1O [WXD007]	5.8 nM	–	–	–	69 nM	–

Now those with a lower IC50 (Human-SGLT2), led by results:

IC50 (Human-SGLT2)	clearance ([1]; rat, plasma)	half-life ([1]; rat, plasma)	Vd ([1]; rat, plasma)	IC50 (Human-SGLT1)	Compound	also measured
1.1 nM	2.26 L/h/kg	1.9 h	1.4 L/kg	1.1 nM	CS[C@H]1O[C@@H](c2ccc(C)c(Cc3ccc(CCCC(=O)NC(C)(C)C(=O)NCCN(C)C)cc3)c2)[C@H](O)[C@@H](O)[C@@H]1O [LX2761, reference compound]	–
0.6 nM	1.95 L/h/kg	2.3 h	1.5 L/kg	0.7 nM	CCc1ccc([C@@H]2O[C@H](SC)[C@@H](O)[C@H](O)[C@H]2O)cc1Cc1ccc(OC2CCN(C(=O)C[C@H](N)Cc3cc(F)c(F)cc3F)CC2)cc1 [WXD003]	Oral DNAUC (AUCPO/Dose) ([1]; 10 mg/kg orally): 2 nM · h/mpk; bioavailability ([1]; rat, plasma, oral, 10 mg/kg orally vs 1 mg/kg intravenously, read-out: F % (oral bioavailability)): 0.2%; Cmax ([1]; rat, po, 10 mg/kg orally, plasma): 0.0165 µM; Glycosylated hemoglobin after 6 hours of fasting (C57BL/6J male mice [2]; after 4 weeks of administration, 3 mg/kg orally once a day, HFHS + Vehicle 4.9): 4.5*** %; Blood glucose after 6 hours of fasting (C57BL/6J male mice [2]; after 4 weeks of administration, 3 mg/kg orally once a day, HFHS + Vehicle 13.7): 10.3*** mmol/L; weight gain of animals (C57BL/6J male mice [2]; after 4 weeks of administration, FIG. 3): can effectively control the weight gain of animals; Glycosylated hemoglobin after 6 hours of fasting (C57BL/6J male mice [2]; after 7 weeks of administration, 6 mg/kg (week 4 to 7) orally once a day, HFHS + Vehicle 5.2): 4.4**** %; Blood glucose after 6 hours of fasting (C57BL/6J male mice [2]; after 7 weeks of administration, 6 mg/kg (week 4 to 7) orally once a day, HFHS + Vehicle 15.3): 9.6**** mmol/L; weight gain of animals (C57BL/6J male mice [2]; after 7 weeks of administration, FIG. 6): can effectively control the weight gain of animals; OGTT blood glucose level AUC0-2 hours (SD rats): 624.2**** mmol/L × min; Blood glucose after 6 hours of fasting (C57BL/6J male mice [3]; 0.3 mg/kg orally once a day): 9.7 mmol/L; Blood glucose 1 hour after meal (C57BL/6J male mice [3]; 0.3 mg/kg orally once a day): 10.5 mmol/L; Blood glucose after 6 hours of fasting (C57BL/6J male mice [3]; 1 mg/kg orally once a day): 9.6 mmol/L; Blood glucose 1 hour after meal (C57BL/6J male mice [3]; 1 mg/kg orally once a day): 10.2 mmol/L; Blood glucose after 6 hours of fasting (C57BL/6J male mice [3]; 3 mg/kg orally once a day): 9.7 mmol/L; Blood glucose 1 hour after meal (C57BL/6J male mice [3]; 3 mg/kg orally once a day): 9.6* mmol/L; animal weight (C57BL/6J male mice [3]; after 3 weeks of administration, 0.3, 1, 3 mg/kg, FIG. 7 and FIG. 8): can significantly reduce animal weight in a dose-dependent manner
0.8 nM	–	–	–	0.8 nM	CS[C@H]1O[C@@H](c2ccc(C)c(Cc3ccc(OC4CCN(C(=O)C[C@H](N)Cc5cc(F)c(F)cc5F)CC4)cc3)c2)[C@H](O)[C@@H](O)[C@@H]1O [WXD004]	–
